US20100280023A1, “THIAZOLE DERIVATIVES” (KYOWA HAKKO KOGYO CO., LTD., priority 2005, published 2010)

What was measured:
[1] = tested on: CGS21680-induced catalepsy; experiment: Effect on CGS21680-induced catalepsy; format: in vivo, male ddY mice; conditions: mice; 10 mg/kg orally 30 minutes before i.c.v. CGS21680 10 μg/20 μL; scored 1 hour after administration; 80% or more judged active
Procedure: Parkinson's disease is motor dysfunction based on the degeneration and cell death of the nigrostriatal dopaminergic neuron. […] Therefore, it is considered that the adenosine A2A receptor functions to promote the output of GABAergic neurons from the corpus striatum into the external segment of globus pallidus, and as a result, catalepsy is induced by the administration of CGS21680.
The experiment was carried out using 10 male ddY mice of 5 weeks of age (body weight, 22 to 25 g, by Nippon SLC) per group. CGS21680 (by Kyowa Hakko Kogyo) was dissolved in physiological saline (by Otsuka Pharmaceutical), and intracerebroventricularly injected to the mice in an amount of 10 μg/20 μL. The test compound was used by being suspended in distilled water containing 0.5 w/v % methyl cellulose 400 cP (hereinafter abbreviated as MC) (by Otsuka Pharmaceutical). […] At 1 hour after the administration of the test compound, the degree of catalepsy was measured with respect to each of the mice such that a pair of only forelimbs and a pair of only hindlimbs of each mouse were placed by turns on a vertically installed acrylic stand with a height of 4.5 cm and a width of 1.0 cm. […]
The catalepsy remission rate was calculated according to the following equation. […]

[2] = molecular target: T1, Rat adenosine A2A receptor (Rattus norvegicus, UniProt P30543); experiment: Adenosine A2A receptor binding test (3H-CGS21680 binding, rat corpus striatum membranes); conditions: test compound 10^−7 mol/L, 25° C., 120 minutes, read-out: Rat adenosine A2A receptor binding inhibition rate (%) (10^−7 mol/L)
T1 construct: tissue Nippon SLC (animals); host or cells: rat (SD) corpus striatum membrane preparation
T1 sequence (P30543 whole entry): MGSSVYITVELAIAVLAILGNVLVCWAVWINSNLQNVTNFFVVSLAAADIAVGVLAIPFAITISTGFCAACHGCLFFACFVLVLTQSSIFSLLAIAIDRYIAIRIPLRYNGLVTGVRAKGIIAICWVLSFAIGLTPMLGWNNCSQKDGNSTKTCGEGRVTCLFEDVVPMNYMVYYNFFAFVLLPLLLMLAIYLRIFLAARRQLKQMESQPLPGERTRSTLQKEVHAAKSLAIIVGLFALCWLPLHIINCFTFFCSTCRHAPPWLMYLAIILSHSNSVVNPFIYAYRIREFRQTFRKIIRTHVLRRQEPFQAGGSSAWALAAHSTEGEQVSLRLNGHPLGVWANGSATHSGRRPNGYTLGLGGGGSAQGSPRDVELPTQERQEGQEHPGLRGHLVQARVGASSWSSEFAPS
Procedure: This test was carried out in a similar manner to a Bruns et al's method (Molecular Pharmacology, Vol. 29, p. 331, 1986).
Corpus striatum of a rat (SD rat, by Nippon SLC) was suspended in 50 mL of an ice-cooled 50 mmol/L tris(hydroxymethyl)aminomethane hydrochloride (Tris-HCl) buffer (pH 7.7) using a polytron homogenizer (by Kinematica). The resulting suspension was centrifuged (48,000×g, 20 minutes), and the resulting precipitate was resuspended by adding the same amount of a 50 mmol/L Tris-HCl buffer, followed by centrifugation under the same condition. The resulting final precipitate was suspended by adding a 50 mmol/L Tris-HCl buffer [containing 10 mmol/L magnesium chloride, adenosine deaminase 0.02 units/mg tissue (by Sigma)] thereto so that the tissue concentration was 5 mg (wet weight)/mL.
To 100 μl, of the above purified cell suspension, 80 μL (final concentration: […]) of tritium-labeled CGS-21680 {^3H-2-[p-(2-carboxyethyl)phenethylamino]-5′-(N-ethylcarboxamido)-adenosine: 40 curies/mmol: by New England Nuclear [The Journal of Pharmacology and Experimental Therapeutics, Vol. 251, p. 888, 1989]) and 20 μL of a test compound solution (10^−7 mol/L; a solution of a test compound in DMSO was diluted with a Tris-HCl buffer) were added. The resulting mixture was allowed to stand at 25° C. for 120 minutes, followed by rapid suction filtration through a glass fiber paper filter (GF/C; by Whatman). The filter was immediately washed three times with 200 μL of an ice-cooled 50 mmol/L Tris-HCl buffer. The glass fiber paper filter was transferred into a vial, Microscinti (by Perkin Elmer) was added thereto, and the radioactivity level was measured with Topcount (by Perkin Elmer).
The inhibition rate of the test compound to the adenosine A2A receptor binding (3H-CGS21680 binding) was calculated according to the following equation.
Inhibition rate (%)={1−[(Amount of binding in the presence of compound)−(Amount of non-specific binding)]/[(Amount of total binding)−(Amount of non-specific binding)]}×100
Amount of total binding means the ^3H-CGS21680 binding radioactivity content in the absence of the test compound. Amount of non-specific binding means the ^3H-CGS21680 binding radioactivity content in the presence of 100 μmol/L cyclopentyladenosine (CPA; by Sigma). Amount of binding in the presence of compound means the ^3H-CGS21680 binding radioactivity content in the presence of 10^−7 mol/L, of the test compound.

| SMILES | catalepsy remission rate [1] [%] | inhibition at 0.1 µM [2] [%] | melting point [°C] |
| --- | --- | --- | --- |
| O=C(c1sc(-c2nc3ncccc3[nH]2)nc1-c1ccco1)C1CCOCC1 [Compound 17, 4-(2-Furyl)-2-(imidazo[4,5-b]pyridin-2-yl)thiazol-5-yl tetrahydropyran-4-yl ketone] | 100 | – | – |
| O=C(c1sc(-c2nc3cnccc3[nH]2)nc1-c1ccco1)C1CCOCC1 [Compound 18, 4-(2-Furyl)-2-(imidazo[4,5-c]pyridin-2-yl)thiazol-5-yl tetrahydropyran-4-yl ketone] | – | 81 | – |
| COc1ccc(-c2c[nH]c(-c3nc(-c4ccco4)c(C(=O)C4CCOCC4)s3)n2)cc1 [Compound 19, 4-(2-Furyl)-2-[4-(4-methoxyphenyl)imidazol-2-yl]thiazol-5-yl tetrahydropyran-4-yl ketone] | – | 63 | 178 to 180 |
| O=C(c1ccccn1)c1sc(-c2nc3ccccc3[nH]2)nc1-c1ccco1 [Compound 24, 4-(2-Furyl)-5-(pyridin-2 ylcarbonyl)-2-(2-benzimidazolyl)thiazole] | – | 94 | – |
| O=C(c1ccccn1)c1sc(-c2nc3c([nH]2)CSCC3)nc1-c1ccco1 [Compound 29, 4-(2-Furyl)-5-(pyridin-2-ylcarbonyl)-2-(3,4,6,7-tetrahydrothiopyrano[3,4-d]imidazol-2-yl)thiazole] | – | 90 | – |
| O=C(Nc1ccccc1)c1nc(-c2ccco2)c(C(=O)C2CCOCC2)s1 [Compound 32, 4-(2 Furyl)-5-(tetrahydropyran-4-ylcarbonyl)thiazol-2-carboxylic acid phenylamide] | – | 26 | – |
| CC(C)CNC(=O)c1nc(-c2ccco2)c(C(=O)C2CCOCC2)s1 [Compound 33, 4-(2-Furyl)-5-(tetrahydropyran-4-ylcarbonyl)thiazol-2-carboxylic acid isobutylamide] | – | 50 | – |
